Data reported in publication PMC6014686, “Thienopyrimidinone Based Sirtuin-2 (SIRT2)-Selective Inhibitors Bind in the Ligand Induced Selectivity Pocket” (Journal of Medicinal Chemistry, 2017).
Entries after “also recorded” stand apart in the source; their conditions may differ. Like-named read-outs stand apart in the source and are kept apart here. Each block holds one compound with its values, some of them ahead of it.

Columns and labels:
SIRT2 [1] = molecular target: T1, SIRT2 (Homo sapiens, UniProt Q8IXJ6); test: SIRT2 enzymatic assay with fluorogenic p53 peptide substrate RHKK(Ac)-AMC; format: biochemical; settings: for increase in potency over 9a: SIRT2 IC50 ratio to 9a
T1 sequence (Q8IXJ6 1-389): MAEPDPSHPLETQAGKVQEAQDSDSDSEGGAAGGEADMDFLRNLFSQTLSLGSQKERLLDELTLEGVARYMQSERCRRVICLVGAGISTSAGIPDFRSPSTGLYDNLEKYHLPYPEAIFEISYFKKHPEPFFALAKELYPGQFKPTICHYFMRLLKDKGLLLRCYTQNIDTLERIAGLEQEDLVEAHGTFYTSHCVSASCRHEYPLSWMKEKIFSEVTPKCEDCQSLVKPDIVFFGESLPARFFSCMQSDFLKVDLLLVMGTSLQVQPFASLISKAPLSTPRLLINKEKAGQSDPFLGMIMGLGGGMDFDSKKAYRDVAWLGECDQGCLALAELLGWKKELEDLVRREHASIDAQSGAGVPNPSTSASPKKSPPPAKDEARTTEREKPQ
Protocol: The newly synthesized analogues, based on our previously validated thienopyrimidinone scaffold, were designed to contain a variety of N-3 (columns a–i, Table 1) and N-7′ substituents (rows 9–49, Table 1), with the aim to conduct a relatively broad survey of the SAR features of this scaffold. These compounds were all synthesized according to the previously disclosed method[81] (Schemes SS1 and SS2, Supporting Information) and assessed as racemates. SIRT2 inhibitory activity was assessed using a validated SIRT2 assay, based on a fluorogenic peptide substrate derived from p53 (see Experimental Section). For this assay, suramin was used as a positive control and gave similar inhibitory activity to that observed previously.[83] A vehicle (DMSO) was used as the negative control. SIRT2 inhibitory activity was measured at two compound concentrations, 1 μM (n = 2) and 10 μM (n = 2) for all compounds.
Enzymatic assays were performed by Reaction Biology Corporation (http://www.reactionbiology.com) as described before.[81] In vitro SIRT assays were conducted by using the fluorogenic peptide substrate from p53 residues 379–382 RHKK(Ac)-AMC for SIRT1–3. The assay buffer contained 50 mM Tris-HCl, pH 8.0, 137 mM NaCl, 2.7 mM KCl, 1 mM MgCl2, 1 mg mL^–1 bovine serum albumin, and 1% DMSO. The protocol involved a two-step procedure. The fluorogenic substrate with the acetylated lysine side chain was incubated with the SIRT enzyme to produce the deacetylated products, which were then digested in the second step by the addition of a developer to produce the fluorescent signal proportional to the amount of deacetylated substrates. Deacetylation of substrate peptides was used as a read out of the SIRT activity. All compounds were freshly prepared as 10 mM stock solutions in DMSO and serially diluted to the indicated concentration in the reaction. All test compounds were preincubated with the human SIRTs for about 10 min before commencing the reaction through the addition of substrate. Fluorescence was read (λex, 360 nm; λem, 460 nm) using an EnVision Multilabel Plate Reader (PerkinElmer). The percentages of enzyme activity (relative to DMSO controls) and IC50 values were calculated using the GraphPad Prism 4 program based on a sigmoidal dose–response equation. The number of replicates is stated in the corresponding text.

SIRT1 [2] = molecular target: T2, SIRT1 (Homo sapiens, UniProt Q96EB6); test: SIRT1 enzymatic assay with fluorogenic p53 peptide substrate RHKK(Ac)-AMC; format: biochemical; settings: Table 3
T2 sequence (Q96EB6 1-747): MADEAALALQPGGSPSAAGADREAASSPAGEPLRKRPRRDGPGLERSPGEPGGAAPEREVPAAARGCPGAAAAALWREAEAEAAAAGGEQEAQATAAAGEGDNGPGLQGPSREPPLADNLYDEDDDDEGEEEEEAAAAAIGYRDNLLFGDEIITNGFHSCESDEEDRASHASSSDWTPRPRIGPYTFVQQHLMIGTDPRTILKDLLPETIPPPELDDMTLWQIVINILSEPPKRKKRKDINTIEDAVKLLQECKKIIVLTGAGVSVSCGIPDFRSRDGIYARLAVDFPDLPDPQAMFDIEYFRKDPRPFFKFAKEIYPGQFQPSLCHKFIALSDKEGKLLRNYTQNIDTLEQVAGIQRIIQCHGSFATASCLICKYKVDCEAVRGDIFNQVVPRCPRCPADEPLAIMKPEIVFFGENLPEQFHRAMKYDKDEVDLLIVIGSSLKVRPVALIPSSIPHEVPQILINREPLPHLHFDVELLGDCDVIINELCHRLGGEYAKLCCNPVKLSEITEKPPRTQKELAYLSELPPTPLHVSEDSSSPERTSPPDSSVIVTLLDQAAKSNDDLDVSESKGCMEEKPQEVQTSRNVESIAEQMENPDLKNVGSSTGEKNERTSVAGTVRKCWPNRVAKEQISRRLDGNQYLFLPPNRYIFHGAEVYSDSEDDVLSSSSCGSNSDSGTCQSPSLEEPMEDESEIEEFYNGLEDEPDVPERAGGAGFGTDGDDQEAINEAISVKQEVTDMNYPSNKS

SIRT3 [3] = molecular target: T3, SIRT3 (Homo sapiens, UniProt Q9NTG7); test: SIRT3 enzymatic assay with fluorogenic p53 peptide substrate RHKK(Ac)-AMC; format: biochemical; settings: Table 3
T3 sequence (Q9NTG7 1-399): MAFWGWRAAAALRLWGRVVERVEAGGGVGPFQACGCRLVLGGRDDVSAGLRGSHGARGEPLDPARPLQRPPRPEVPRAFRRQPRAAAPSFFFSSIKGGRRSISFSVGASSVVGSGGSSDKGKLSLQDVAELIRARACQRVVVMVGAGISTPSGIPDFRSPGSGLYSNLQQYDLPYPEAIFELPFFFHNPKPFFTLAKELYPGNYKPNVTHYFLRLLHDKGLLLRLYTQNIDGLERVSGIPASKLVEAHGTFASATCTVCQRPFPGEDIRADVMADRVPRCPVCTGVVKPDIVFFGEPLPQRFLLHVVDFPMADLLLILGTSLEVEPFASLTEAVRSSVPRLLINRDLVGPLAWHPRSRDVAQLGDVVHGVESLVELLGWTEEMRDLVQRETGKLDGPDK

[4] = system: acetylated (lysine-40) α-tubulin in MCF-7 cells; test: Tubulin acetylation assay, Western blot in MCF-7 cells with TSA; settings: 0-50 μM for 24 h with 50 nM TSA, N = 3
SIRT2 [5] = system: SIRT2; design: method as in PMID 15780941, PMID 26982234, PMID 25275824, PMID 11483616, PMID 16618762; settings: Figure 1; differing in vitro assays and conditions; cited from earlier work
SIRT1 [6] = settings: Figure 1, cited from earlier work; for IC50: differing in vitro assays and conditions
SIRT6 = system: SIRT6; design: method as in PMID 25672491; settings: Figure 1; cited from earlier work
SIRT3 [7] = settings: Figure 1, cited from earlier work
[8] = supplement CSV, SIRT2, 10uM, read-out: Inhibition@10uM

inhibition at 10 µM (SIRT2 [1]; [8]): 18.2%
Compound: COc1cccc(Cn2cnc3sc4c(c3c2=O)CCC(NCc2ccccn2)C4)c1 (stereo not shown) [21h]

SIRT2 selectivity over SIRT1 (SIRT1 [2]): more than 100 fold | SIRT2 selectivity over SIRT3 (SIRT3 [3]): more than 100 fold | SIRT2/SIRT3 selectivity (SIRT3 [3]; ratio of IC50 values): >256
Compound: N#Cc1ccc(CNC2CCc3c(sc4ncn(Cc5cccc6cccnc56)c(=O)c34)C2)cc1 (stereo not shown) [15e, 4-(((4-Oxo-3-(quinolin-8-ylmethyl)-3,4,5,6,7,8-hexahydrobenzo[4,5]thieno[2,3-d]pyrimidin-7-yl)amino)methyl)benzonitrile]

SIRT2 selectivity over SIRT1 (SIRT1 [2]): > 200 fold | SIRT2 selectivity over SIRT3 (SIRT3 [3]): ~30 fold
Compound: COc1ccc(Cn2cnc3sc4c(c3c2=O)CCC(NCc2c(C)noc2C)C4)c2ccccc12 (stereo not shown) [29c]
effect on α-tubulin acetylation level [4]: increased levels of α-tubulin acetylation in a dose dependent manner; also recorded: increased the α-tubulin acetylation level at 10 μM and retained consistent to 50 μM

inhibition at 10 µM (SIRT2 [1]; [8]): 14.4%
Compound: COc1cccc(Cn2cnc3sc4c(c3c2=O)CCC(NCc2c(C)nn(C)c2C)C4)c1 (stereo not shown) [27h]

inhibition at 10 µM (SIRT2 [1]; [8]): 32.6%
Compound: O=c1c2c3c(sc2ncn1Cc1ccccc1)CC(NCc1ccncc1)CC3 (stereo not shown) [20g]

inhibition at 10 µM (SIRT2 [1]; [8]): 26.7%
Compound: O=c1c2c3c(sc2ncn1Cc1ccccc1)CC(NCCc1cccnc1)CC3 (stereo not shown) [31g]

Compound: O=c1[nH]c(=S)[nH]c(-c2ccccc2)c1Cc1c(O)ccc2ccccc12 [Cambinol, cambinol]
IC50 (SIRT2 [5]): 51000 nM | IC50 (SIRT1 [6]): 56000 nM

increase in potency over 9a (SIRT2 [1]): 32 fold
Compound: COc1ccc(CNC2CCc3c(sc4ncn(Cc5c(OC)ccc6ccccc56)c(=O)c34)C2)cc1 (stereo not shown) [18a]

inhibition at 10 µM (SIRT2 [1]; [8]): 57.6%
Compound: COc1cccc(Cn2cnc3sc4c(c3c2=O)CCC(NCc2ccncc2)C4)c1 (stereo not shown) [20h]

inhibition at 10 µM (SIRT2 [1]; [8]): 22.3%
Compound: COc1ccccc1NC1CCc2c(sc3ncn(Cc4cccc5ccccc45)c(=O)c23)C1 (stereo not shown) [35b]

inhibition at 10 µM (SIRT2 [1]; [8]): 17.5%
Compound: O=c1c2c3c(sc2ncn1Cc1ccccc1)CC(NCc1cncnc1)CC3 (stereo not shown) [22g]

inhibition at 10 µM (SIRT2 [1]; [8]): 87.9%
Compound: COc1ccc(CNC2CCc3c(sc4ncn(Cc5c(OC)ccc6ccccc56)c(=O)c34)C2)cn1 (stereo not shown) [23a]

inhibition at 10 µM (SIRT2 [1]; [8]): 30.5%
Compound: O=c1c2c3c(sc2ncn1Cc1cccc2cccnc12)CC(NC1CCCC1)CC3 (stereo not shown) [41e]

SIRT2 inhibitory activity (in words) (SIRT2 [1]): lacking in vitro activity against SIRT2
Compound: O=c1c2c3c(sc2ncn1Cc1ccccc1)CC(NCC1CCCO1)CC3 (stereo not shown) [25g]
effect on α-tubulin acetylation level [4]: no effect on tubulin acetylation levels; also recorded: showed no effect on the acetylation of α-tubulin

inhibition at 10 µM (SIRT2 [1]; [8]): 33.4%
Compound: COc1cccc(Cn2cnc3sc4c(c3c2=O)CCC(NCc2ccco2)C4)c1 (stereo not shown) [28h]

SIRT2 inhibitory activity (in words) (SIRT2 [1]): inactive | SIRT2 percentage inhibition (at 10 μM) (SIRT2 [1]; Table 2 middle value, 10 μM compound): 25% | Inhibition@10uM (SIRT2 [1]; supplement CSV, SIRT2, 10uM): 24.87
Compound: 6-(2-Aminoethyl)-3-((2-methoxynaphthalen-1-yl) methyl)-5-methylthieno [2,3-d] pyrimidin-4(3H)-one [56a]

inhibition at 10 µM (SIRT2 [1]; [8]): 26.4%
Compound: COc1ccccc1NC1CCc2c(sc3ncn(Cc4cccc(-c5ccccc5)c4)c(=O)c23)C1 (stereo not shown) [35i]

inhibition at 10 µM (SIRT2 [1]; 10 μM compound, n = 2, read-out: SIRT2 percentage inhibition (at 10 μM)): -6.5% | inhibition at 10 µM (SIRT2 [1]; [8]): -6.5%
Compound: COc1ccc(Cn2cnc3sc4c(c3c2=O)CCC(NCc2cccc(Cl)c2)C4)c2ccccc12 (stereo not shown) [12c]

inhibition at 10 µM (SIRT2 [1]; [8]): 40.5%
Compound: COc1cccc(Cn2cnc3sc4c(c3c2=O)CCC(NCCc2cccnc2)C4)c1 (stereo not shown) [31h]

Compound: Cc1cc(C)nc(SCC(=O)Nc2ncc(Cc3cccc4ccccc34)s2)n1 [compound 8, SirReal2]
IC50 (SIRT2 [5]): […] | IC50 (SIRT1 [6]): > 100000 nM | IC50 (SIRT6): > 200000 nM

increase in potency over 9a (SIRT2 [1]): 9 fold
Compound: COc1ccccc1CNC1CCc2c(sc3ncn(Cc4c(OC)ccc5ccccc45)c(=O)c23)C1 (stereo not shown) [16a]

SIRT2 inhibitory activity (in words) (SIRT2 [1]): inactive
Compound: COc1ccc2ccccc2c1Cn1cnc2sc(CCN(C)C)c(C)c2c1=O [57a]

Compound: O=C(Nc1cnccc1Br)c1cccc(-c2ccc3ccccc3c2)c1 [compound 4]
IC50 (SIRT2 [5]): 600 nM | IC50 (SIRT1 [6]): > 100000 nM | IC50 (SIRT3 [7]; differing in vitro assays): > 100000 nM

inhibition at 10 µM (SIRT2 [1]; [8]): 21.6%
Compound: O=c1c2c3c(sc2ncn1Cc1cccc(-c2ccccc2)c1)CC(NC1CCCc2ccccc21)CC3 (stereo not shown) [46i]

Compound: N#C/C(=C\c1ccc(-c2cc(Cl)ccc2Cl)o1)C(=O)Nc1cccc2ncccc12 [AGK2]
IC50 (SIRT1 [6]): > 50000 nM | effect on α-tubulin acetylation level [4]: showed significant increase of α-tubulin acetylation at 10 to 50 μM

inhibition at 10 µM (SIRT2 [1]; [8]): 29.6%
Compound: COc1cccc(NC2CCc3c(sc4ncn(Cc5cccc(-c6ccccc6)c5)c(=O)c34)C2)c1 (stereo not shown) [37i]

inhibition at 10 µM (SIRT2 [1]; [8]): 18.3%
Compound: COc1cccc(Cn2cnc3sc4c(c3c2=O)CCC(NCc2cncnc2)C4)c1 (stereo not shown) [22h]

Compound: CSc1ccc(CSc2cccc(C(=O)Nc3ccc(C#N)cc3)c2)cc1 [compound 5]
IC50 (SIRT2 [5]): 2400 nM | SIRT1 inhibition @ 10 μM (SIRT1 [6]; 10 μM): 3% | SIRT3 inhibition @ 10 μM (SIRT3 [7]; 10 μM): no inhibition

inhibition at 10 µM (SIRT2 [1]; [8]): 3.44%
Compound: COc1cccc(Cn2cnc3sc4c(c3c2=O)CCC(NCC2CCCO2)C4)c1 (stereo not shown) [25h]

Compound: NC(=O)c1cccnc1 [Nicotinamide, nicotinamide]
IC50 (SIRT2 [5]): […] | IC50 (SIRT1 [6]): 85000 nM

Compound: CC1(C)Cc2c(-c3ccc(Cl)cc3)n[nH]c2C(C(N)=O)C1 (stereo not shown) [compound 7]
IC50 (SIRT2 [5]): 1700 nM | IC50 (SIRT1 [6]): 800 nM
